The text below walks through data of patent publication US20160106802A1, “METHODS OF DIAGNOSING AND TREATING ASTHMA” (Alba Therapeutics Corporation, priority 2006, published 2016).

The assay has as its system zonulin receptor. Description: In situ immunofluorescence microscopy of lung tissue sections with FITC-labeled peptides. It is filed as binding. The following applies: mouse lung sections (4 μm, frozen blocks) incubated with FITC-labeled peptide; FIG. 1. The method, then:
In situ immunofluorescence microscopy was used to establish the distribution of the zonulin receptor within the respiratory tract. Lung tissue sections (4 μm) made from frozen blocks were placed immediately on plain uncoated slides and incubated with either FITC-labeled FZI/0 (the zonulin synthetic peptide inhibitor that specifically binds to the zonulin receptor described in U.S. Pat. No. 6,458,925, Gly-Gly-Val-Leu-Val-Gln-Pro-Gly SEQ ID NO: 15) or FITC-labeled FZI/1 (a scrambled peptide described in U.S. Pat. No. 6,458,925, Val-Gly-Val-Leu-Gly-Arg-Pro-Gly SEQ ID NO: 25) The results are shown in FIG. 1.

Entries after “also recorded” stand apart in the source; their conditions may differ. Ends that are not written are not given here.

Consider GGVLVQPG [FZI/0], for which the “immunofluorescence signal of FITC-labeled peptide bound to lung tissue sections” value is “Clusters of immunofluorescent FZI/0 particles were visualized; also recorded: Cluster of immunofluorescence FZI/0 particles were visualized”.
“VGVLGRPG [FZI/1, a scrambled peptide described in U.S. Pat. No. 6,458,925, reference compound]”: the “immunofluorescence signal of FITC-labeled peptide bound to lung tissue sections” value is listed as “no signal was detected”.
